From US5466436A, “Medicaments for treating inflammatory conditions or for analgesia” (Glaxo Group Limited, priority 1991, dated 1995)
Where a name gives a salt, the structure may show the parent alone.

Experiments:
[1] = system: indomethacin-induced gastric antral ulceration; assay: Inhibition of indomethacin-induced gastric antral ulceration in the rat (modified Satoh et al.); assay type: in vivo; conditions: for potency compared with other test compounds (in words): ranitidine bismuth citrate versus ranitidine hydrochloride and De-Nol, po; for potency compared with other test compounds (in words) / inhibition of indomethacin-induced lesions (in words): rats; for inhibition of indomethacin-induced lesions (in words): ranitidine bismuth citrate 1 to 100 mg/kg po
Experimental: The ability of ranitidine bismuth citrate to prevent indomethacin-induced gastric antral ulceration was compared with that of ranitidine hydrochloride and De-Nol™. Female rats, which had been fasted for 24 hours and then re-fed, received ranitidine bismuth citrate (1 to 100mg/kg), ranitidine hydrochloride (10 to 100mg/kg) or De-Nol™ (3 to 100mg/kg) by oral gavage. Ranitidine bismuth citrate was administered as a suspension and the other test compounds as solutions. Thirty minutes after dosing with the test compound, animals received indomethacin (60mg/kg sc) as an ulcerogenic stimulus and after a further 6 hours the animals were killed and the antral region assessed macroscopically for damage.

[2] = system: aspirin-induced injury to the gastric mucosa; conditions: human clinical study, N. Hudson et al., Gut 1992, 33 supplement, s47; cited from earlier work
[3] = system: mucosal lesions of the gastrointestinal tract caused by non-steroidal anti-inflammatory drugs; assay: Tests in animals and humans: mucosal lesions of the gastrointestinal tract caused by non-steroidal anti-inflammatory drugs; assay type: in vivo
[4] = listed as Ranitidine bismuth citrate
[5] = listed as ranitidine bismuth citrate

| Compound | ED50 ([1]; Rattus norvegicus, female rats, oral gavage 30 min before indomethacin 60 mg/kg sc, antral damage assessed after a further 6 hours) [mg/kg] | potency compared with other test compounds (in words) [1] | ED50 for inhibition of indomethacin-induced antral ulceration ([1]; female rats, oral gavage 30 min before indomethacin 60 mg/kg sc, antral damage assessed after a further 6 hours) [mg/kg p.o.] | inhibition of indomethacin-induced lesions (in words) [1, 4] | inhibition of indomethacin-induced lesions (in words) [1, 5] | potency compared with other test compounds (in words) [1, 4] | potency compared with other test compounds (in words) [1, 5] | protection from aspirin-induced injury to the gastric mucosa (in words) [2] | reduction of NSAID-caused mucosal lesions of the gastrointestinal tract (in words) [3] |
| --- | --- | --- | --- | --- | --- | --- | --- | --- | --- |
| CNC(=C[N+](=O)[O-])NCCSCc1ccc(CN(C)C)o1 [Ranitidine Hydrochloride, ranitidine hydrochloride, reference compound] | 23.4 | markedly less potent |  |  |  |  |  |  |  |
| N-[2-[[[5-[(dimethylamino)methyl]-2-furanyl]methyl]thio]ethyl]-N'-methyl-2-nitro-1,1-ethenediamine 2-hydroxy-1,2,3-propanetricarboxylate bismuth (3^+) complex [Ranitidine Bismuth Citrate] |  |  | 4.5 | dose-related inhibition of indomethacin-induced lesions | prevent indomethacin induced gastric antral ulceration | relatively potent | markedly more potent than both ranitidine hydrochloride and tripotassium dicitrato bismuthate as DeNol™ | substantial protection from aspirin-induced injury to the gastric mucosa | significantly reduced |
